Test results published in patent US20140255451A1, “Implantable Medical Device Comprising A Macrocyclic Triene Lactone Drug And Minimal Antioxidant Stabilizer And Method Of Fabrication” (ABBOTT CARDIOVASCULAR SYSTEMS INC., priority 2013, published 2014).

Assay: Decrease in BHT content on a stent due to each manufacturing step (FIG. 1)
Assay type: physicochemical
Conditions: for reduction of the amount of BHT present in the drug reservoir layer: everolimus/BHT Xience V stent
Text: FIG. 1 is a graph showing the decrease in BHT content on a stent due to each step in the manufacturing process in which a macrocyclic triene lactone and BHT are present.
For example, with regard to the above-mentioned Xience V stent, the process steps for coating the stent include spray coating a drug reservoir layer solution comprising everolimus and BHT onto a stent, which includes a primer layer, then drying the coated stent at an elevated temperature, mounting the stent on a delivery catheter and, finally, sterilizing the mounted stent/catheter. […] FIG. 1 relates to a stent comprising everolimus as the macrocyclic triene lactone and BHT as the antioxidant stabilizer but it is understood that similar if not identical results would be observed if a different macrocyclic triene lactone were used with BHT. Likewise it is expected that similar results would be obtained in terms of the magnitude of the effect at each step of a different antioxidant stabilizer were used.
Calculation of the proper amount of BHT to include with everolimus on a stent to arrive at a finished catheter/stent product that has the desired amount of residual BHT, i.e., about 0.001% to about 0.01% w/w based on the weight of everolimus on the stent, can be accomplished in two ways. At one extreme is stoichiometric reduction in the amount of BHT on the stent as the fabrication steps progress. In this approach, the amount of BHT drops by a constant amount at each fabrication step independent of the starting amount of BHT present. At the other extreme is a percentage drop where amount of the BHT decreases by the same percentage in each fabrication step, likewise independent of starting amount of BHT. Table 1 exemplifies these extremes compared to the known loss of BHT using the current […] stent and everolimus, which contains 0.20% (w/w) of BHT based on the weight of everolimus.
Thus, the fabrication process shown in FIG. 1 affords a drop in the amount of BHT from 0.2% in the starting material down to approximately 0.044% in the finished product. To achieve a final amount of BHT that is between the presently preferred […] and 0.01%, assuming the same proportional decrease in the amount of BHT, a starting amount in the coating solvent would be about 0.0455% (w/w) or less. On the other hand, assuming the same absolute decrease in the amount of BHT present in the finished product (stoichiometric loss), would require something less than about 0.166% (w/w) BHT in the coating solvent. Of course, a BHT reduction process that is neither stoichiometric nor proportional is possible, in which case the starting amount of BHT on the stent would be between the two extremes. It is clear, however, that beginning with about 0.0166% (w/w) BHT based on everolimus would in all instances result in a finished product have less that 0.01% (w/w) of BHT, an amount that would for all intents and purposes result in an insignificant exposure of a patient to the antioxidant.

reduction of the amount of BHT present in the drug reservoir layer (catheter mounting step): about 1% | reduction of the amount of BHT present in the drug reservoir layer (drying step at elevated temperature): about 9% | reduction of the amount of BHT present in the drug reservoir layer (ethylene oxide sterilization step): about 64% | additional reduction of BHT (follow-up ethylene oxide sterilization on the already sterilized catheter/stent): 30% | reduction of the amount of BHT present in the drug reservoir layer (spray coating step): about 61%
Compound: Cc1cc(C(C)(C)C)c(O)c(C(C)(C)C)c1 [BHT, butylated hydroxytoluene]
% Antioxidant (w/w, based on everolimus) in finished product (current XV process, 0.20% BHT initially provided in everolimus): approximately 0.044 % (w/w, based on everolimus)
